Source: paper PMC9936538, “Structure–Activity Relationship of N-Ethyl-Hexedrone Analogues: Role of the α-Carbon Side-Chain Length in the Mechanism of Action, Cytotoxicity, and Behavioral Effects in Mice” (ACS Chemical Neuroscience, 2023)

Tests used:
hDAT = biological target: T1, hDAT (Homo sapiens, UniProt Q01959); assay: Monoamine uptake inhibition, [3H]MPP+ uptake at hDAT in transfected HEK293 cells; format: cell-based; settings: for hDAT/hSERT inhibition ratio: 1/DAT IC50:1/SERT IC50, calculated with the original raw data
T1 construct: expressed in transfected cells; host or cells: HEK293
Experimental: Human embryonic kidney cells (HEK293) stably transfected with the human DAT and SERT were used for both the uptake inhibition and transporter binding assays.[6] Cells were cultured in DMEM supplemented with heat-inactivated 10% fetal bovine serum (FBS), […], and 100 U/mL penicillin at 37 °C in a 5% CO2 humidified atmosphere. Geneticin (G418; 50 μg/mL) was added to maintain the selection process. Upon approximately 80% confluence, cells were washed with 5 mL of phosphate-buffered saline (PBS) and 1 mL of trypsin/EDTA was added. After 3 min, 9 mL of DMEM was added to stop cell trypsinization. If necessary, centrifugation was performed to pellet the cells. Cells were then resuspended, counted, and seeded onto poly-D-lysine coated (24 h/prior to the experiment) 96-well plates at a density of 0.36 million cells per well for the uptake inhibition assays.
Assays were performed as previously described.[8] On the test day, the medium was removed from the cell culture 96-well plates and immediately replaced with 200 μL of Krebs-HEPES-buffer (KHB; 10 mM HEPES, 120 mM NaCl, 3 mM KCl, 2 mM CaCl2·2H2O, 2 mM MgCl2·6H2O supplemented with 20 mM D-glucose; pH 7.3). To ensure equilibrated conditions, cells were incubated with different concentrations of the drugs in KHB at a final volume of 50 μL/well for 5 min (preincubation). The preincubation solution was removed, and cells were incubated with the tritiated compounds, 0.02 μM [^3H]MPP^+ for hDAT and 0.1 μM [^3H]5-HT for hSERT, together with various concentrations of the test drugs in KHB. The uptake incubation times were 3 min for hDAT and 1 min for hSERT. The reaction was stopped by rapid removal of the incubation solution and washout with ice-cold KHB. Cells were lysed with 1% sodium dodecyl sulfate, and lysates were subsequently transferred to vials containing scintillation fluid. Radioactivity was quantified with a beta-scintillation counter (PerkinElmer, Waltham, MA, USA). The uptake in the absence of the test drugs was normalized to 100%, and the uptake in the presence of various concentrations of cathinones was expressed as a percentage thereof. […] Four independent experiments carried out on triplicates were performed.
For in vitro assays, data were normalized with 100% defined as the mean of the technical replicates in the control group and expressed as mean ± SEM. Nonlinear regression was used to fit the different competition curves. Data were plotted and best fitted to a sigmoidal dose–response curve from which an IC50 or LC50 value was obtained. Transporter ratios were calculated as (1/DAT IC50: 1/SERT IC50). […] The Cheng–Prusoff equation was used to calculate Ki (affinity): Ki = EC50/(1 + [radioligand concentration/Kd]).[65] The sample size for behavioral experiments was determined using GPower software. One-way or two-way ANOVA, and subsequent Tukey’s posthoc test, conducted only if F was significant, was used to determine the effects of cathinones on cytotoxicity, HLA, OF, and CPP experiments. The α error probability was set at 0.05 (p < 0.05). The exact size group for the behavioral experiments is shown in the corresponding figure legends. All statistic calculations were carried out using GraphPad Prism (GraphPad software, San Diego, CA, USA).

Swiss CD-1 mice [1] = assay: Horizontal locomotor activity (HLA) in mice; format: in vivo; settings: for HLA (total distance traveled in 60 min) vs saline / duration of the significant increase in locomotor activity: 3 mg/kg i.p.; for duration of the significant increase in locomotor activity: 5 min blocks; for shape of the dose response of HLA: 3, 10, 30 mg/kg i.p., ceiling at highest dose 30 mg/kg
Experimental: Male Swiss CD-1 mice (Janvier, Le Genest, France) weighing 30–35 g (6–8 weeks old), housed in temperature-controlled conditions (22 ± 1 °C) under a 12 h light/dark cycle and with free access to food and drinking water (standard laboratory diet, Panlab SL, Barcelona, Spain), were randomly assigned to an experimental group. Efforts were made to minimize animal use and suffering.
In the habituation phase, which lasted for two consecutive days, mice received an intraperitoneal (i.p.) saline injection and were immediately placed into a black Plexiglass OF arena (25 × 25 × 40 cm) under low-light conditions and white noise for 30 min. On the test day, the HLA was measured as described.[8] […] HLA was video-monitored for 1 h and a specific tracking software (Smart 3.0 Panlab, Barcelona, Spain) was used to measure their total traveled distance (in cm). The doses were chosen according to the psychostimulant effect induced by structurally related synthetic cathinones published in previous studies by our research group.[8]

Swiss CD-1 mice [2] = tested on: Swiss CD-1 mice; set-up: method as in PMID 32535718; settings: 4 and 16 mg/kg subcutaneous injections; cited from earlier work

T1 sequence (Q01959 whole entry): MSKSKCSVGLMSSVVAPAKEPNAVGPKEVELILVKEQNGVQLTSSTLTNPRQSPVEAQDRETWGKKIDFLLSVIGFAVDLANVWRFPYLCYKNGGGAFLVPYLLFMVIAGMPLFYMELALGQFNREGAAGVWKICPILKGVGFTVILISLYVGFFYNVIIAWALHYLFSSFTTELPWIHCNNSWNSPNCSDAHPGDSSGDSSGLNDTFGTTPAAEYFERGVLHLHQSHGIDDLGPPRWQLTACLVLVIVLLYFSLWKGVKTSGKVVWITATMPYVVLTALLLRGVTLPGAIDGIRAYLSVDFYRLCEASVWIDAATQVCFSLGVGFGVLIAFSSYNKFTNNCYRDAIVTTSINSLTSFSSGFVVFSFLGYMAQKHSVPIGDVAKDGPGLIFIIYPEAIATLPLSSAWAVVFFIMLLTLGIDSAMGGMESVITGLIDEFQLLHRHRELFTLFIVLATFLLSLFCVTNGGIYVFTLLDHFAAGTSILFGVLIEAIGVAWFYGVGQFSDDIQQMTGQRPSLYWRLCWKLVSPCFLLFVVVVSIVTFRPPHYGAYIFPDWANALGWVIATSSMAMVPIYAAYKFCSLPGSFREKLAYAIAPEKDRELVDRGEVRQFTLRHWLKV

Row | SMILES | IC50 (hDAT) | hDAT/hSERT inhibition ratio (hDAT) | HLA (total distance traveled in 60 min) vs saline (Swiss CD-1 mice [1]) | duration of the significant increase in locomotor activity (Swiss CD-1 mice [1]) | shape of the dose response of HLA (Swiss CD-1 mice [1]) | reduction of potency inhibiting DA uptake compared with α-PVP (hDAT; vs α-PVP) | CPP (Swiss CD-1 mice [2]) | potency in inhibiting DA uptake compared with NEC (hDAT; vs NEC) | time at which the locomotor effect ended (Swiss CD-1 mice [1]; 10 mg/kg i.p., 60 min session)
1 | CCNC(CC)C(=O)c1ccccc1 (centres unmarked) [NEB, N-ethyl-buphedrone] | 305 nM | 168 | significant effect | 15 min | ceiling effect |  |  |  | 
2 | CCNC(C)C(=O)c1ccccc1 (centres unmarked) [NEC, N-ethyl-cathinone] | 1440 nM | 157 |  |  | dose–response relationship | ~10 fold |  |  | 
3 | CCCCC(NCC)C(=O)c1ccccc1 (centres unmarked) [NEH, N-ethyl-hexedrone] | 73 nM | 1457 |  |  | dose–response relationship |  | significant CPP | ~20 fold | 
4 | CCCCCC(NCC)C(=O)c1ccccc1 (centres unmarked) [NEHP, N-ethyl-heptedrone] | 251 nM | 426 |  |  | dose–response relationship |  |  |  | < 60 min
5 | CCCC(NCC)C(=O)c1ccccc1 (centres unmarked) [NEPD, N-ethyl-pentedrone] | 91 nM | 844 | significant effect | 40 min | ceiling effect |  |  |  | 
